Drawing on patent US20240246964A1 (Arbutus Biopharma Corporation, priority 2021, published 2024), this text covers IC50 and EC50 for 19 compounds.

For assay [1], the target named is PD-L1 His protein / PD-1 Fc protein (Homo sapiens (Human), UniProt Q9NZQ7). The experiment in a line: HTRF Assay (PD-1/PD-L1 interaction). It counts as binding. As to conditions: PD-L1 His 6 nM, PD-1 Fc 6 nM.
A further assay deals with human PD-L1 (Homo sapiens (Human), UniProt Q9NZQ7). The experiment in a line: T cell activation luciferase reporter cell culture system (T Cell Activation Assay). It counts as cell-based. The following applies: luciferase reporter assay; PD-L1 aAPC/CHO-K1 cells with PD-1 effector Jurkat T cells.
Chain of human PD-L1 (Q9NZQ7 19-290): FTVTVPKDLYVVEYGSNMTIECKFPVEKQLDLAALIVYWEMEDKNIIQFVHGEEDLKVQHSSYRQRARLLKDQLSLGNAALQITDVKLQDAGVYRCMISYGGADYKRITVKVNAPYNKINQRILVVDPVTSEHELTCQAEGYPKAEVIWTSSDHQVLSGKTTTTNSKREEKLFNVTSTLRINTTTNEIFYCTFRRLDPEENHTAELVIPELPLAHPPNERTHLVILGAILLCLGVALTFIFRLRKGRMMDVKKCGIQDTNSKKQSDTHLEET

Chain of PD-L1 His protein / PD-1 Fc protein (Q9NZQ7 19-238): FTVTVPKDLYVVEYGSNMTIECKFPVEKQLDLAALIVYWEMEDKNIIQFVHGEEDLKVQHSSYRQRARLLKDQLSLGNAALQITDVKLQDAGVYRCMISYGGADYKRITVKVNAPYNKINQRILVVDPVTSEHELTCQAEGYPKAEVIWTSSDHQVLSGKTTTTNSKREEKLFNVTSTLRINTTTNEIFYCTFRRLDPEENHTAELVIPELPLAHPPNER

For the compound `Cn1cc(CNC[C@@H]2CCC(=O)N2)c2ccc(-c3nccc(-c4ccnc(-c5ccc6c(CNC[C@@H]7CCC(=O)N7)cn(C)c6c5)c4Cl)c3Cl)cc21` [Compound 15, (5S,5′S)-5,5′-(((((3,3′-dichloro-[4,4′-bipyridine]-2,2′-diyl)bis(1-methyl-1H-indole-6,3-diyl))bis(methylene))bis(azanediyl))bis(methylene))bis(pyrrolidin-2-one)], the IC50 in assay [1] is 108 nM. On human PD-L1, this compound came in with an EC50 of 10000 nM.

For `COc1nc(-c2cccc(-c3ccnc(-c4ccc5c(c4)CN(CCNC[C@@H]4CCC(=O)N4)C5=O)c3Cl)c2Cl)ccc1CN1CC2(C1)CN(C(C)=O)C2` [Compound 144, (S)-5-(4-(3-(5-((6-acetyl-2,6-diazaspiro[3.3]heptan-2-yl)methyl)-6-methoxypyridin-2-yl)-2-chlorophenyl)-3-chloropyridin-2-yl)-2-(2-(((5-oxopyrrolidin-2-yl)methyl)amino)ethyl)isoindolin-1-one], the IC50 in assay [1] was found to be 2.68 nM. In addition, the EC50 on human PD-L1 is not below 10000 nM.

Take `COc1cc(-c2nccc(-c3cccc(NC(=O)c4ccc(CNC[C@@H]5CCC(=O)N5)cn4)c3C)c2Cl)ccc1CNCCCF` [Example 749, (S)—N-(3-(3-Chloro-2-(4-(((3-fluoropropyl)amino)methyl)-3-methoxyphenyl)pyridin-4-yl)-2-methylphenyl)-5-((((5-oxopyrrolidin-2-yl)methyl)amino)methyl)picolinamide]: in assay [1], it took 0.33 nM to reach half-maximal inhibition (IC50). On human PD-L1, this compound returned an EC50 of 461 nM.

Compound `COc1nc(-c2cccc(-c3ccnc(-c4ccc5c(CNC6CN(C(C)=O)C6)cn(C)c5c4)c3Cl)c2Cl)ccc1CNC[C@@H]1CCC(=O)N1` [Compound 55, (S)-5-((((6-(3-(2-(3-(((1-acetylazetidin-3-yl)amino)methyl)-1-methyl-1H-indol-6-yl)-3-chloropyridin-4-yl)-2-chlorophenyl)-2-methoxypyridin-3-yl)methyl)amino)methyl)pyrrolidin-2-one] returned an IC50 in assay [1] of 4.9 nM. Also, the EC50 on human PD-L1 was determined as 127 nM.

In turn, `COc1nc(-c2cccc(-c3ccnc(-c4cc(OC)c5nc(CNC6CC7(COC7)C6)cn5c4)c3Cl)c2Cl)ccc1CNC[C@@H]1CCC(=O)N1` [Example 321, (S)-5-((((6-(3-(2-(2-(((2-Oxaspiro[3.3]heptan-6-yl)amino)methyl)-8-methoxyimidazo[1,2-a]pyridin-6-yl)-3-chloropyridin-4-yl)-2-chlorophenyl)-2-methoxypyridin-3-yl)methyl)amino)methyl)pyrrolidin-2-one] gave an IC50 in assay [1] of 0.847 nM. Moreover, a half-maximal response on human PD-L1 (EC50) required 64.7 nM.

On to `COc1cc(-c2nccc(-c3cccc(-c4cc(F)c(CNC[C@@H]5CCC(=O)N5)c(OC)n4)c3Cl)c2Cl)cc2c1CN(CCO)CC2` [Compound 132, (S)-5-((((6-(2-chloro-3-(3-chloro-2-(2-(2-hydroxyethyl)-8-methoxy-1,2,3,4-tetrahydroisoquinolin-6-yl)pyridin-4-yl)phenyl)-4-fluoro-2-methoxypyridin-3-yl)methyl)amino)methyl)pyrrolidin-2-one], for which, in assay [1], the IC50 was 0.408 nM. Further, the EC50 on human PD-L1 is 51.2 nM.

As for `COc1cc(-c2cccc(-c3ccnc(-c4cnc(CNC5CCOCC5)c(OC)c4)c3Cl)c2Cl)cnc1CNC1CCOCC1` [Compound 570, N-((5-(2-Chloro-3-(3-chloro-5′-methoxy-6′-(((tetrahydro-2H-pyran-4-yl)amino)methyl)-[2,3′-bipyridin]-4-yl)phenyl)-3-methoxypyridin-2-yl)methyl)tetrahydro-2H-pyran-4-amine], in assay [1], the IC50 is 18.5 nM. The compound also showed an EC50 on human PD-L1 not below 10000 nM.

The compound `COc1nc(-c2cccc(-c3ccnc(-c4ccc(CNC5CCOCC5)c(OC)n4)c3Cl)c2Cl)ccc1CNC1CCOCC1` [Compound 629, N-((6-(2-Chloro-3-(3-chloro-6′-methoxy-5′-(((tetrahydro-2H-pyran-4-yl)amino)methyl)-[2,2′-bipyridin]-4-yl)phenyl)-2-methoxypyridin-3-yl)methyl)tetrahydro-2H-pyran-4-amine] returned an IC50 in assay [1] of 0.66 nM. The compound further showed an EC50 at human PD-L1 of 114 nM.

With `COc1cc(-c2nccc(-c3cccc(-c4ccc(CN5CC6(CCOCC6)C5)c(OC)n4)c3Cl)c2Cl)ccc1CN1CC2(CCOCC2)C1` [Example 470, 2-((6-(3-(2-(4-((7-Oxa-2-azaspiro[3.5]nonan-2-yl)methyl)-3-methoxyphenyl)-3-chloropyridin-4-yl)-2-chlorophenyl)-2-methoxypyridin-3-yl)methyl)-7-oxa-2-azaspiro[3.5]nonane], in assay [1], the IC50 worked out at 19.3 nM. The same compound returned an EC50 on human PD-L1 of 190 nM.

Compound `COc1nc(-c2ccnc(-c3cccc4c3CC[C@@H]4Oc3nc(OC)c(CNC[C@H](C)O)cc3C(F)(F)F)c2Cl)ccc1CNC[C@@H]1CCC(=O)N1` [Compound 128, (S)-5-((((3′-chloro-2′-((S)-1-((5-((((S)-2-hydroxypropyl)amino)methyl)-6-methoxy-3-(trifluoromethyl)pyridin-2-yl)oxy)-2,3-dihydro-1H-inden-4-yl)-6-methoxy-[2,4′-bipyridin]-5-yl)methyl)amino)methyl)pyrrolidin-2-one] had an IC50 in assay [1] of 0.542 nM. Besides, the EC50 at human PD-L1 was found to be 9.11 nM.

The compound `COc1cc(-c2nccc(-c3cccc(NC(=O)c4cn(C)c(=O)n(C)c4=O)c3Cl)c2Cl)ccc1CNC[C@@H]1CCC(=O)N1` [Example 657, (S)—N-(2-Chloro-3-(3-chloro-2-(3-methoxy-4-((((5-oxopyrrolidin-2-yl)methyl)amino)methyl)phenyl)pyridin-4-yl)phenyl)-1,3-dimethyl-2,4-dioxo-1,2,3,4-tetrahydropyrimidine-5-carboxamide] came in with an IC50 in assay [1] of 0.14 nM. The EC50 on human PD-L1 stood at 33.3 nM.

`COc1cc(-c2nccc(-c3cccc(-c4ccc(CNC[C@@H]5CCC(=O)N5)c(OC)n4)c3Cl)c2Cl)ccc1CN[C@@H](C)C(=O)O` [Compound 130, (4-(3-chloro-4-(2-chloro-3-(6-methoxy-5-(((((S)-5-oxopyrrolidin-2-yl)methyl)amino)methyl)pyridin-2-yl)phenyl)pyridin-2-yl)-2-methoxybenzyl)-L-alanine] registered an IC50 in assay [1] of 0.209 nM. On human PD-L1, the EC50 was 158 nM.

Turning to `COc1cc(-c2nccc(-c3cccc(-c4ccc(CN5CCN(C(C)=O)CC5)c(OC)n4)c3Cl)c2Cl)ccc1CN1CCN(C(C)=O)CC1` [Example 655, 1-(4-((6-(3-(2-(4-((4-Acetylpiperazin-1-yl)methyl)-3-methoxyphenyl)-3-chloropyridin-4-yl)-2-chlorophenyl)-2-methoxypyridin-3-yl)methyl)piperazin-1-yl)ethan-1-one], the IC50 in assay [1] worked out at 9.58 nM. For the same compound, the EC50 on human PD-L1 is not below 10000 nM.

On to `COc1nc(-c2cccc(-c3ccnc(-c4cnc5cc(CNC[C@@H]6CCC(=O)N6)ccc5c4)c3Cl)c2Cl)ccc1CNC[C@@H]1CCC(=O)N1` [Compound 52, (S)-5-((((6-(2-chloro-3-(3-chloro-2-(7-(((((S)-5-oxopyrrolidin-2-yl)methyl)amino)methyl)quinolin-3-yl)pyridin-4-yl)phenyl)-2-methoxypyridin-3-yl)methyl)amino)methyl)pyrrolidin-2-one], for which half-maximal inhibition in assay [1] (IC50) was put at 0.2 nM. Moreover, the EC50 at human PD-L1 is 127 nM.

The compound `COc1nc(-c2cccc(-c3nccc(-c4ccc(CNC5CCN(C(C)=O)CC5)c(OC)n4)c3Cl)c2Cl)ccc1CN1CCC(O)CC1` [Example 774, 1-(4-(((3′-Chloro-2′-(2-chloro-3-(5-((4-hydroxypiperidin-1-yl)methyl)-6-methoxypyridin-2-yl)phenyl)-6-methoxy-[2,4′-bipyridin]-5-yl)methyl)amino)piperidin-1-yl)ethan-1-one] displayed an IC50 in assay [1] of 1.46 nM. In addition, the EC50 at human PD-L1 was 13 nM.

`COc1cc(-c2nccc(-c3cccc(-c4ccc(CN(C)CC5CN(C(C)=O)C5)c(OC)n4)c3Cl)c2Cl)ccc1CN(C)CC1CN(C(C)=O)C1` [Example 499, 1-(3-((((6-(3-(2-(4-((((1-Acetylazetidin-3-yl)methyl)(methyl)amino)methyl)-3-methoxyphenyl)-3-chloropyridin-4-yl)-2-chlorophenyl)-2-methoxypyridin-3-yl)methyl)(methyl)amino)methyl)azetidin-1-yl)ethan-1-one] had an IC50 in assay [1] of 2.07 nM. Further, the EC50 on human PD-L1 came out at 88.5 nM.

In assay [1], `COc1cc(-c2ncnc(-c3cccc(NC(=O)c4cn(C)c(=O)n(C)c4=O)c3Cl)c2Cl)ccc1CNC[C@H](C)O` [Compound 746, (S)—N-(2-Chloro-3-(5-chloro-6-(4-(((2-hydroxypropyl)amino)methyl)-3-methoxyphenyl)pyrimidin-4-yl)phenyl)-1,3-dimethyl-2,4-dioxo-1,2,3,4-tetrahydropyrimidine-5-carboxamide] returned an IC50 of 1.29 nM. Besides, on human PD-L1, the EC50 amounted to 2080 nM.

As to `COc1nc(-c2ccnc(-c3cccc4c3CC[C@@H]4Oc3nc(OC)c(CNC[C@@H]4CCC(=O)N4)cc3C(F)(F)F)c2Cl)ccc1CNC[C@@H]1CCC(=O)N1` [Compound 166, (S)-5-((((3′-chloro-6-methoxy-2′-((S)-1-((6-methoxy-5-(((((S)-5-oxopyrrolidin-2-yl)methyl)amino)methyl)-3-(trifluoromethyl)pyridine-2-yl)oxy)-2,3-dihydro-1H-inden-4-yl)-[2,4′-bipyridin]-5-yl)methyl)amino)methyl)pyridine1332ne-2-one], the IC50 in assay [1] came to 0.18 nM. The compound further came in with an EC50 on human PD-L1 of 1.98 nM.

Regarding `CNCc1ccc(-c2cccc(-c3ccnc(-c4ccc(CN5CC[C@H](C(=O)OC(C)C)C5)c(OC)c4)c3Cl)c2Cl)nc1OC` [Example 278, Isopropyl (S)-1-(4-(3-chloro-4-(2-chloro-3-(6-methoxy-5-((methylamino)methyl)pyridin-2-yl)phenyl)pyridin-2-yl)-2-methoxybenzyl)pyrrolidine-3-carboxylate], half-maximal inhibition in assay [1] (IC50) required 404 nM. This compound had an EC50 at human PD-L1 of 258 nM.
